Tests used:
[1] = test system: HIV; experiment: Inactivation of HIV from blood of sero-positive patient, reverse transcriptase activity after culture with H9 cells; assay type: cell-based, Human Immunodeficiency Virus (HIV)
Description: In order to show the effectiveness of the compounds of the present invention in the inactivation of HIV, blood was obtained from an HIV sero-positive patient and treated with hypericin and pseudohypericin at various concentrations for 1 hour at 37° C. and incubated with uninfected H9 cells in culture. Thereafter, reverse transcriptase enzymatic activity was determined as disclosed in U.S. patent application Ser. Nos. 084,008 and 172,064 filed Aug. 10, 1987 and Mar. 23, 1988, respectively.
(§1) In FIG. 1, open squares represent hypericin-treated and pluses represent pseudohypericin treated HIV. […] Inactivation of the reverse transcriptase activity of the virions was not a result of a direct inhibition of reverse transcriptase activity per se, as incubation of either compound directly with purified reverse transcriptase from either avian myeloblastosis virus or murine leukemia virus had no effect on enzyme activity. Furthermore, aliquots of HIV derived from these H9 cell cultures lost the ability to replicate in culture when exposed to as little as 0.77 micrograms/ml of hypericin.

[2] = test system: HIV; experiment: Infectivity (ability to replicate in culture) of HIV derived from H9 cell cultures; assay type: cell-based, Human Immunodeficiency Virus (HIV)
Description: FIG. 2 is a graph showing the effect of hypericin and pseudohypericin on the infectivity of HIV cultured from an AIDS patient.
as §1

[3] = Addition of hypericin to whole blood: standard blood chemistries, complete blood count, coagulation profile; parameters: species or system human; MCV / MCH / MCHC / Bilirubin (direct): unit not given here
Description: Triplicate samples of blood were drawn from two normal individuals directly into vacuum tubes. Into one set of tubes was added hypericin dissolved in 10% ethanol, 40% propylene glycol, 50% water to a final concentration of hypericin of 0.1 micrograms/ml of blood. A second set of tubes received hypericin at 1.0 micrograms/ml of blood. The final concentration of ethanol was 0.01% and of propylene glycol 0.04% in each sample, respectively. The third set served as an untreated control. Hypericin-treated and untreated samples were taken directly to a clinical laboratory for testing of standard blood chemistries, complete blood count, and a coagulation profile.

## Cc1cc(O)c2c(=O)c3c(O)cc(O)c4c5c(O)cc(O)c6c(=O)c7c(O)cc(C)c8c1c2c(c34)c(c78)c65 [hypericin]
[1]; 1 hour at 37° C., H9 cells
  concentration giving complete inactivation of HIV (no reverse transcriptase detected): 2.5 micrograms/ml
[1]; Human immunodeficiency virus 1, H9, 1 h, read-out: concentration giving complete inactivation of HIV (no reverse transcriptase detected), 1 hour at 37° C., H9 cells
  IC100: > 2.5 µg/mL
[2]
  concentration abolishing infectivity of HIV (loss of ability to replicate in culture): 0.77 micrograms/ml
[2]; Human immunodeficiency virus 1, read-out: concentration abolishing infectivity of HIV (loss of ability to replicate in culture)
  minimal effective concentration: 0.77 µg/mL
[3]; 1.0 and 0.1 micrograms/ml
  effect on blood chemistries and hematologic parameters (summary): no significant effect
[3]; Subject #1, 0.1 micrograms/ml
  BUN: 13 mg/dL
  Bilirubin: 0.5 mg/dL
  Bilirubin (direct): 0.1
  CO2: 28 meq/l
  Ca^+: 10.1 mg/dL
  Cl^-: 106 meq/l
  Creat: 0.9 mg/dL
  ESR: 5 mm/hr
  Hb: 15.8 gm/dl
  Hct: 46.7%
  K^+: 4.2 meq/l
  LDH: 154 IU/l
  MCH: 30.8
  MCHC: 33.8
  MCV: 91.0
  Na^+: 140 meq/l
  SGOT: 19 IU/l
  WBC: 8.1 /cu mm
  albumin: 4.8 gm/dl
  alk phos: 76 IU/l
  cholesterol: 255 mg/dL
  glucose: 107 mg/dL
  lymphs: 34.9%
  monos: 4.2%
  neutr: 60.9%
  phosphate: 3.7 mg/dL
  total protein: 7.5 gm/dl
  uric acid: 5.7 mg/dL
[3]; Subject #1, 1.0 micrograms/ml
  BUN: 12 mg/dL
  Bilirubin: 0.5 mg/dL
  Bilirubin (direct): 0.1
  CO2: 28 meq/l
  Ca^+: 10.2 mg/dL
  Cl^-: 106 meq/l
  Creat: 0.9 mg/dL
  ESR: 4 mm/hr
  Hb: 16.0 gm/dl
  Hct: 47.6%
  K^+: 4.3 meq/l
  LDH: 153 IU/l
  MCH: 30.6
  MCHC: 33.6
  MCV: 91.1
  Na^+: 137 meq/l
  SGOT: 15 IU/l
  WBC: 8.0 /cu mm
  albumin: 4.8 gm/dl
  alk phos: 75 IU/l
  cholesterol: 258 mg/dL
  glucose: 105 mg/dL
  lymphs: 32.9%
  monos: 5.5%
  neutr: 61.6%
  phosphate: 3.6 mg/dL
  total protein: 7.5 gm/dl
  uric acid: 5.6 mg/dL
[3]; Subject #2, 0.1 micrograms/ml
  BUN: 9 mg/dL
  Bilirubin: 0.5 mg/dL
  Bilirubin (direct): 0.1
  CO2: 27 meq/l
  Ca^+: 9.5 mg/dL
  Cl^-: 108 meq/l
  Creat: 0.7 mg/dL
  ESR: 1 mm/hr
  Hb: 13.0 gm/dl
  Hct: 37.8%
  K^+: 4.4 meq/l
  LDH: 110 IU/L
  MCH: 31.4
  MCHC: 34.4
  MCV: 91.4
  Na^+: 140 meq/l
  SGOT: 15 IU/L
  WBC: 6.7 /cu mm
  albumin: 4.5 gm/dl
  alk phos: 51 IU/l
  cholestrol: 133 mg/dL
  glucose: 96 mg/dL
  lymphs: 33.1%
  monos: 4.9%
  neutr: 62.0%
  phosphate: 3.0 mg/dL
  total protein: 6.4 g/dL
  uric acid: 4.2 mg/dL
[3]; Subject #2, 1.0 micrograms/ml
  BUN: 8 mg/dL
  Bilirubin: 0.5 mg/dL
  Bilirubin (direct): 0.1
  CO2: 27 meq/l
  Ca^+: 9.5 mg/dL
  Cl^-: 108 meq/l
  Creat: 0.6 mg/dL
  ESR: 1 mm/hr
  Hb: 12.9 gm/dl
  Hct: 37.3%
  K^+: 4.5 meq/l
  LDH: 97 IU/L
  MCH: 31.6
  MCHC: 34.6
  MCV: 91.3
  Na^+: 141 meq/l
  SGOT: 14 IU/L
  WBC: 6.4 /cu mm
  albumin: 4.4 gm/dl
  alk phos: 52 IU/l
  cholestrol: 131 mg/dL
  glucose: 95 mg/dL
  lymphs: 32.0
  monos: 5.2%
  neutr: 62.8%
  phosphate: 3.1 mg/dL
  total protein: 6.3 g/dL
  uric acid: 4.1 mg/dL

Reference: US5326788A, “Biological fluid purification system” (priority 1992, dated 1994)
